According to patent US20060235076A1, “Medicinal composition for treating infection with drug-resistant staphylococcus aureus” (priority 2003, published 2006):
Converted amounts (≈) assume the structure as drawn. Like-named read-outs stand apart in the source and are kept apart here.

Assays:
Assay type in all cases: cell-based, Staphylococcus aureus
MRSA and MSSA [1] = test: Enhancing activity for the antibacterial activity of oxacillin by various gallates (agar plate dilution method, oxacillin MIC); details: Staphylococcus aureus, oxacillin alone
Experimental: (§1) According to the agar plate dilution method defined by Japan Society of Chemotherapy, MIC (Minimum inhibitory concentration) was determined. CAMHA was prepared by adding 50 mg/l of Ca-ion, 25 mg/l of Mg-ion, and 2% of NaCl to Mueller-Hinton II Agar (MHA), and it was used as a medium for use in the measurement of sensitivity. The bacterial liquid was incubated at 37° C. overnight and diluted to 10^6 CFU/ml with saline.

MRSA = test: Potentiating effect of galloyl quinic acid derivatives for the antibacterial activity of oxacillin (agar plate dilution method, MIC); details: Staphylococcus aureus, read-out: Oxacillin MIC
Experimental: as §1
It was confirmed that the known substances shown below were contained in “Tara” and their MICs were determined as described in example 2 with respect to the effects of the combination use with oxacillin

MRSA and MSSA [2] = test: Antibacterial activity of gallic acid, various gallates and multivalent phenol derivatives alone (agar plate dilution method, MIC); details: Staphylococcus aureus; for MIC: read-out: MIC alone
Experimental: as §1
MIC for gallic acid, various gallates and multivalent phenol derivatives alone with MRSA and MSSA were determined as described in experiment 2.

[3] = test system: MRSA COL and MRSA Strain No. 5; test: Potentiating effect of various gallates for antibacterial activity of oxacillin (MIC by broth microdilution method and FIC); details: for FIC value: combination with oxacillin
Experimental: According to the broth microdilution method defined by Japan Society of Chemotherapy, MIC was determined. CAMHA was prepared by adding 50 mg/l of Ca-ion, 25 mg/l of Mg-ion, and 2% of NaCl to MHB (Mueller-Hinton Broth), and it was used as a medium for use in the measurement of sensitivity. In 96-well microplates 100 μl of the medium for use in the measurement of sensitivity containing drugs was dispensed. The bacterial liquid was incubated at 37° C. overnight, diluted with saline and added to the plate so that the final concentration of the bacteria was 5×10^5 CFU/well. […] FIC (fractional inhibitory concentration) was calculated from the result and the potency of the effect of the combination use was evaluated.

Cc1onc(-c2ccccc2)c1C(=O)N[C@@H]1C(=O)N2[C@@H]1SC(C)(C)[C@@H]2C(=O)O [Oxacillin, oxacillin]
MIC (MRSA and MSSA [1]; ATCC 6538 / MRSA / MSSA, ATCC 6538): 0.063 µg/mL | MIC (MRSA and MSSA [1]; MRSA 1): > 256 µg/mL | MIC (MRSA and MSSA [1]; MRSA 2): 256 µg/mL | MIC (MRSA and MSSA [1]; MRSA 3): 128 µg/mL | MIC (MRSA and MSSA [1]; MRSA 4): 256 µg/mL | MIC (MRSA and MSSA [1]; MRSA 5): 256 µg/mL | MIC (MRSA and MSSA [1]; MRSA 6): > 256 µg/mL | MIC (MRSA and MSSA [1]; MRSA 7): > 256 µg/mL | MIC (MRSA and MSSA [1]; MRSA 8): 128 µg/mL | MIC (MRSA and MSSA [1]; MRSA 9): 256 µg/mL | MIC (MRSA and MSSA [1]; MRSA 10): 128 µg/mL | MIC (MRSA and MSSA [1]; MRSA 12): > 256 µg/mL | MIC (MRSA and MSSA [1]; MRSA 16): 256 µg/mL | MIC (MRSA and MSSA [1]; MRSA 17): 256 µg/mL | MIC (MRSA and MSSA [1]; MRSA 18): > 256 µg/mL | MIC (MRSA and MSSA [1]; MRSA 20): 64 µg/mL | MIC (MRSA and MSSA [1]; MRSA 21): 64 µg/mL | MIC (MRSA and MSSA [1]; MRSA 22): 32 µg/mL | MIC (MRSA and MSSA [1]; MRSA 24): < 0.5 µg/mL | MIC (MRSA and MSSA [1]; MRSA COL): 256 µg/mL | MIC (MRSA and MSSA [1]; MSSA 1003): 0.25 µg/mL | MIC (MRSA and MSSA [1]; MSSA 1010): 0.25 µg/mL | MIC (MRSA and MSSA [1]; MSSA 1020): 1 µg/mL | MIC (MRSA and MSSA [1]; MSSA 1023): 2 µg/mL | MIC (MRSA and MSSA [1]; MSSA 1029): 4 µg/mL | MIC (MRSA and MSSA [1]; MSSA 1032): 0.13 µg/mL | MIC (MRSA; ATCC 6538 / MRSA, ATCC 6538, oxacillin alone (—)): 0.063 µg/mL | MIC (MRSA; MRSA / MSSA, MSSA 1003, oxacillin alone (—)): 0.25 µg/mL | MIC (MRSA; MRSA / MSSA, MSSA 1010, oxacillin alone (—)): 0.25 µg/mL | MIC (MRSA; MRSA / MSSA, MSSA 1032, oxacillin alone (—)): 0.13 µg/mL | MIC (MRSA; MRSA, MRSA 1, oxacillin alone (—)): > 256 µg/mL | MIC (MRSA; MRSA, MRSA 2, oxacillin alone (—)): 256 µg/mL | MIC (MRSA; MRSA, MRSA 3, oxacillin alone (—)): 128 µg/mL | MIC (MRSA; MRSA, MRSA 4, oxacillin alone (—)): 256 µg/mL | MIC (MRSA; MRSA, MRSA 5, oxacillin alone (—)): 256 µg/mL | MIC (MRSA; MRSA, MRSA 6, oxacillin alone (—)): > 256 µg/mL | MIC (MRSA; MRSA, MRSA 7, oxacillin alone (—)): > 256 µg/mL | MIC (MRSA; MRSA, MRSA 8, oxacillin alone (—)): 128 µg/mL | MIC (MRSA; MRSA, MRSA 9, oxacillin alone (—)): 256 µg/mL | MIC (MRSA; MRSA, MRSA 10, oxacillin alone (—)): 128 µg/mL | MIC (MRSA; MRSA, MRSA 12, oxacillin alone (—)): > 256 µg/mL | MIC (MRSA; MRSA, MRSA 16, oxacillin alone (—)): 256 µg/mL | MIC (MRSA; MRSA, MRSA 17, oxacillin alone (—)): 256 µg/mL | MIC (MRSA; MRSA, MRSA 18, oxacillin alone (—)): > 256 µg/mL | MIC (MRSA; MRSA, MRSA 20, oxacillin alone (—)): 64 µg/mL | MIC (MRSA; MRSA, MRSA 21, oxacillin alone (—)): 64 µg/mL | MIC (MRSA; MRSA, MRSA 22, oxacillin alone (—)): 32 µg/mL | MIC (MRSA; MRSA, MRSA COL, oxacillin alone (—)): 256 µg/mL | MIC (MRSA; MRSA): 0.13 µg/mL

CCCCCCCCCCOC(=O)c1cc(O)c(O)c(O)c1 [Decyl gallate, n-decyl gallate]
MIC50 (MRSA and MSSA [2]): 15.7 µg/mL (≈ 50.6 µM) | MIC (MRSA and MSSA [2]; ATCC 6538 / MRSA / MSSA): 15.7 µg/mL (≈ 50.6 µM) | MIC (MRSA and MSSA [2]; COL): 15.7 µg/mL (≈ 50.6 µM) | MIC (MRSA and MSSA [2]; MRSA #1): 15.7 µg/mL (≈ 50.6 µM) | MIC (MRSA and MSSA [2]; MRSA #2): 15.7 µg/mL (≈ 50.6 µM) | MIC (MRSA and MSSA [2]; MRSA #3): 15.7 µg/mL (≈ 50.6 µM) | MIC (MRSA and MSSA [2]; MRSA #4): 15.7 µg/mL (≈ 50.6 µM) | MIC (MRSA and MSSA [2]; MRSA #5): 15.7 µg/mL (≈ 50.6 µM) | MIC (MRSA and MSSA [2]; MRSA #6): 15.7 µg/mL (≈ 50.6 µM) | MIC (MRSA and MSSA [2]; MRSA #7): 15.7 µg/mL (≈ 50.6 µM) | MIC (MRSA and MSSA [2]; MRSA #8): 15.7 µg/mL (≈ 50.6 µM) | MIC (MRSA and MSSA [2]; MRSA #9): 15.7 µg/mL (≈ 50.6 µM) | MIC (MRSA and MSSA [2]; MRSA #10): 15.7 µg/mL (≈ 50.6 µM) | MIC (MRSA and MSSA [2]; MRSA #12): 15.7 µg/mL (≈ 50.6 µM) | MIC (MRSA and MSSA [2]; MRSA #16): 15.7 µg/mL (≈ 50.6 µM) | MIC (MRSA and MSSA [2]; MRSA #17): 15.7 µg/mL (≈ 50.6 µM) | MIC (MRSA and MSSA [2]; MRSA #18): 15.7 µg/mL (≈ 50.6 µM) | MIC (MRSA and MSSA [2]; MRSA #20): 15.7 µg/mL (≈ 50.6 µM) | MIC (MRSA and MSSA [2]; MRSA #21): 31.3 µg/mL (≈ 101 µM) | MIC (MRSA and MSSA [2]; MRSA #22): 31.3 µg/mL (≈ 101 µM) | MIC (MRSA and MSSA [2]; MRSA #24): 31.3 µg/mL (≈ 101 µM) | MIC (MRSA and MSSA [2]; MRSA and MSSR): 15.7 µg/mL (≈ 50.6 µM) | MIC (MRSA and MSSA [2]; MSSA #1003): 15.7 µg/mL (≈ 50.6 µM) | MIC (MRSA and MSSA [2]; MSSA #1010): 15.7 µg/mL (≈ 50.6 µM) | MIC (MRSA and MSSA [2]; MSSA #1020): 15.7 µg/mL (≈ 50.6 µM) | MIC (MRSA and MSSA [2]; MSSA #1023): 15.7 µg/mL (≈ 50.6 µM) | MIC (MRSA and MSSA [2]; MSSA #1029): 15.7 µg/mL (≈ 50.6 µM) | MIC (MRSA and MSSA [2]; MSSA #1032): 15.7 µg/mL (≈ 50.6 µM) | antibacterial activity when used alone ([3]; COL Strain and Strain No. 5): most potent | FIC value ([3]; MRSA COL): 0.258 | FIC value ([3]; MRSA Strain No. 5): 0.508
